# Reference: paper PMC8150775, “Repositioning Azelnidipine as a Dual Inhibitor Targeting CD47/SIRPα and TIGIT/PVR Pathways for Cancer Immuno-Therapy” (Biomolecules, 2021)
# System: CT26 cells
# Assay: Phagocytosis assay, BMDM co-cultured with CFSE-labeled CT26 cells
# Type: cell-based, mouse
# Conditions: 20 μM, 4 h
# Procedure: Bone marrow-derived macrophage (BMDM) cells were isolated from C57BL/6 or BALB/c mice and induced with 20 ng/mL of GM-CSF (Peprotech, Rocky Hill, CT, USA) for 7 days. Meanwhile, the medium was replaced with fresh medium containing the cytokine and the adherent cells were harvested. Phagocytosis assays were performed by a co-culture of the BMDM macrophages with carboxyfluorescein succinimidyl ester-labeled (CFSE^+) or GFP^+ tumor cells at a ratio of 1:4 in a serum-free medium at 37 °C for 4 h, in low-attachment 96-well tissue culture plates (Corning, New York, NY, USA). The cells were harvested and the macrophages were identified by a flow cytometry using anti-F4/80 antibody (eBioscience, San Diego, CA, USA). Then, 7-AAD (eBioscience) was used to exclude the dead cells. The effects of azelnidipine (20 μM) on phagocytosis by BMDM cells were tested, and the anti-CD47 antibody (clone: miap301) were used as the positive control. Phagocytosis rate was determined with the formulation: F4/80^+GFP^+ or F4/80^+CFSE^+ cells/ Total F4/80^+ cells.
# Figure 4 Azelnidipine enhances macrophage mediated phagocytosis of the tumor cells. The effects of the azelnidipine on the phagocytosis of the macrophages were tested by a co-culture of the tumor cells and BMDM cell derived from C57BL/6 or BALB/c mice. […] GFP^+ or CFSE^+ BMDMs were detected by a flow cytometry. […]
compound,measurement,value
CC1=C(C(=O)OC(C)C)C(c2cccc([N+](=O)[O-])c2)C(C(=O)OC2CN(C(c3ccccc3)c3ccccc3)C2)=C(N)N1 (stereo not shown) [Azelnidipine],phagocytosis of CT26 cells by BMDM cells,significantly enhance
